The Deep4Chem optical property database
One block for each compound: values may come before it.

Assay: solvent given as SMILES

Structure (SMILES): CCOC(=O)COc1ccc(/C=C/C2=C3c4ccccc4C(c4[nH]c(C)cc4C)=[N+]3[B-](F)(F)n3c(C)cc(C)c32)cc1
absorption maximum (in C1CCOC1): 608 nm
absorption maximum (in CC#N): 602 nm
absorption maximum (in CCCCCC): 608 nm
absorption maximum (in CO): 603 nm
absorption maximum (in Cc1ccccc1): 614 nm
absorption maximum (in ClCCl): 608 nm

Structure (SMILES): CC(C)[Si]1(C(C)C)c2cc(C=C(C#N)C#N)ccc2-c2ccc(N(C)C)cc21
absorption maximum (in C1CCCCC1): 480 nm
absorption maximum (in CC#N): 475 nm
absorption maximum (in CCO): 478 nm
absorption maximum (in CCOCC): 469 nm
absorption maximum (in CS(C)=O): 488 nm
absorption maximum (in ClCCl): 489 nm
absorption maximum (in c1ccccc1): 480 nm

Structure (SMILES): CCOC(=O)c1c2c3c(ccc(Br)c3c3cc4c(cc13)[Si](C)(C)O[Si]4(C)C)N(C)C2=O
absorption maximum (in CC#N): 382 nm

Structure (SMILES): CC1(C)c2ccccc2N(c2ccc3c(c2)c2ccccc2n2c4ccccc4nc32)c2ccccc21
absorption maximum (in Cc1ccccc1): 376 nm

Structure (SMILES): C[Si]1(C)C2=CC(=[N+]3CCC3)C=C(F)C2=Nc2c(F)cc(N3CCC3)cc21
absorption maximum (in CCO): 709 nm

Structure (SMILES): CN(C)c1ccc(/C=C2\CC/C(=C\c3ccc(C#N)cc3)C2=O)cc1
absorption maximum (in C1CCOC1): 458 nm
absorption maximum (in CC#N): 456 nm
absorption maximum (in CC(C)=O): 454 nm
absorption maximum (in CC(C)O): 471 nm
absorption maximum (in CCCCO): 473 nm
absorption maximum (in CCCCOC(C)=O): 442 nm
absorption maximum (in CCCO): 473 nm
absorption maximum (in CCO): 472 nm
absorption maximum (in CCOC(=O)c1ccccc1): 459 nm
absorption maximum (in CCOC(C)=O): 446 nm
absorption maximum (in CCOCC): 438 nm
absorption maximum (in CN(C)C=O): 464 nm
absorption maximum (in CO): 473 nm
absorption maximum (in CS(C)=O): 471 nm
absorption maximum (in Cc1ccccc1): 455 nm
absorption maximum (in ClC(Cl)(Cl)Cl): 446 nm
absorption maximum (in ClC(Cl)Cl): 469 nm
absorption maximum (in ClCCl): 464 nm
absorption maximum (in Clc1ccccc1Cl): 465 nm
absorption maximum (in O=C1CCCC1): 460 nm
absorption maximum (in S=C=S): 464 nm
absorption maximum (in c1ccccc1): 457 nm
absorption maximum (in c1ccncc1): 467 nm

Structure (SMILES): CN(C)c1ccc(/C=C/C=C2\CC/C(=C\c3ccc(N(C)C)cc3)C2=O)cc1
absorption maximum (in C1CCOC1): 479 nm
absorption maximum (in CC#N): 478 nm
absorption maximum (in CC(C)=O): 474 nm
absorption maximum (in CC(C)O): 493 nm
absorption maximum (in CCCCCC): 435 nm
absorption maximum (in CCCCO): 499 nm
absorption maximum (in CCCCOC(C)=O): 468 nm
absorption maximum (in CCCO): 499 nm
absorption maximum (in CCO): 498 nm
absorption maximum (in CCOC(=O)c1ccccc1): 481 nm
absorption maximum (in CCOC(C)=O): 464 nm
absorption maximum (in CCOCC): 448 nm
absorption maximum (in CN(C)C=O): 486 nm
absorption maximum (in CO): 500 nm
absorption maximum (in CS(C)=O): 496 nm
absorption maximum (in Cc1ccccc1): 475 nm
absorption maximum (in ClC(Cl)(Cl)Cl): 449 nm
absorption maximum (in ClC(Cl)Cl): 486 nm
absorption maximum (in ClCCl): 484 nm
absorption maximum (in Clc1ccccc1Cl): 488 nm
absorption maximum (in S=C=S): 489 nm
absorption maximum (in c1ccccc1): 475 nm
absorption maximum (in c1ccncc1): 488 nm

Structure (SMILES): O=C1CC(=O)Nc2cc(C(=O)O)ccc2N1
absorption maximum (in CS(C)=O): 304 nm

Structure (SMILES): CCN(CC)c1ccc(/C=C2\CC/C(=C\c3ccc(N(c4ccc(/C=C5\CC/C(=C\c6ccc(N(CC)CC)cc6)C5=C(C#N)C#N)cc4)c4ccc(/C=C5\CC/C(=C\c6ccc(N(CC)CC)cc6)C5=C(C#N)C#N)cc4)cc3)C2=C(C#N)C#N)cc1
absorption maximum (in CN(C)C=O): 590 nm

Structure (SMILES): O=C(c1cc(F)c(O)cc1F)c1cc(F)c(O)cc1F
absorption maximum (in CCO): 306 nm

Structure (SMILES): COc1cc2c(cc1/C=C/C1=CC(=C(C#N)C#N)CC(C)(C)C1)c1ccccc1n2C
absorption maximum (in C1CCOC1): 475 nm
absorption maximum (in CC#N): 477 nm
absorption maximum (in CCO): 479 nm
absorption maximum (in CCOC(C)=O): 462 nm
absorption maximum (in CN(C)C=O): 484 nm
absorption maximum (in CS(C)=O): 489 nm
absorption maximum (in Cc1ccccc1): 468 nm
absorption maximum (in ClC(Cl)Cl): 485 nm
absorption maximum (in ClCCl): 478 nm

Structure (SMILES): CN(C)CCNCc1c2ccccc2cc2ccccc12
absorption maximum (in C1CCCCC1): 368 nm
absorption maximum (in C1CCOC1): 366 nm
absorption maximum (in CC#N): 365 nm
absorption maximum (in CC(C)=O): 365 nm
absorption maximum (in CCO): 366 nm
absorption maximum (in CN(C)C=O): 363 nm
absorption maximum (in CO): 364 nm
absorption maximum (in ClC(Cl)Cl): 367 nm

Structure (SMILES): COC(=O)/C=C/C=C/C1=CC2=C(c3c(C)cc(C)cc3C)c3cc(/C=C/C=C/C(=O)OC)cn3[B-](F)(F)[N+]2=C1
absorption maximum (in ClCCl): 633 nm

Structure (SMILES): N#C/C(=C\c1cn(-c2ccccc2)nc1-c1ccc([N+](=O)[O-])cc1)c1nc2ccccc2s1
absorption maximum (in C1CCOC1): 378 nm
absorption maximum (in C1COCCO1): 379 nm
absorption maximum (in CCOC(C)=O): 375 nm
absorption maximum (in CN(C)C=O): 376 nm
absorption maximum (in CS(C)=O): 375 nm
absorption maximum (in Cc1ccccc1): 383 nm
absorption maximum (in ClC(Cl)Cl): 382 nm

Structure (SMILES): N#Cc1cccc(N2c3ccccc3C(c3ccccc3)(c3ccccc3)c3ccccc32)c1
absorption maximum (in Cc1ccccc1): 284 nm

Structure (SMILES): CCCCCCCCCCCn1cccc1C1=[N+]2C(=Cc3c(C)cc(C)n3[B-]2(F)F)c2ccccc21
absorption maximum (in C1CCOC1): 584 nm
absorption maximum (in CC#N): 577 nm
absorption maximum (in CCCCCC): 583 nm
absorption maximum (in CO): 579 nm
absorption maximum (in Cc1ccccc1): 590 nm
absorption maximum (in ClCCl): 584 nm

Structure (SMILES): Cc1c(-c2ccc(N3c4ccccc4C(C)(C)c4ccccc43)cc2)ncnc1-c1ccc(N2c3ccccc3C(C)(C)c3ccccc32)cc1
absorption maximum (in Cc1ccccc1): 367.5 nm

Structure (SMILES): CN(C)c1ccc(C2=Cc3c4ccccc4c4ccccc4[n+]3[B-](F)(F)O2)cc1
absorption maximum (in C1CCOC1): 478 nm
absorption maximum (in C1COCCO1): 477 nm
absorption maximum (in CC1CCCCC1): 474 nm
absorption maximum (in CC#N): 476 nm
absorption maximum (in CCOC(C)=O): 475 nm
absorption maximum (in CCOCC): 472 nm
absorption maximum (in CN(C)C=O): 484 nm
absorption maximum (in CO): 475 nm
absorption maximum (in COC(C)=O): 477 nm
absorption maximum (in ClC(Cl)Cl): 483 nm

Structure (SMILES): CC(C)=O
absorption maximum (in CCCCCC): 279 nm

Structure (SMILES): C[Si](C)(C)c1ccc2ccc3c([Si](C)(C)C)ccc4ccc1c2c43
absorption maximum (in CCCCCC): 350 nm
absorption maximum (in CO): 349 nm
absorption maximum (in ClCCl): 352 nm

More lines, now with the values ahead:

absorption maximum (in C1CCOC1): 347.38 nm
Structure (SMILES): COC(=O)c1ccc(C#Cc2c3c(c4c(-c5ccccc5)c(-c5ccccc5)c(-c5ccccc5)c(-c5ccccc5)c4c2-c2ccc(C(=O)OC)cc2)CC(C(=O)OC)(C(=O)OC)C3)cc1

absorption maximum (in ClCCl): 364 nm
Structure (SMILES): Oc1cc(-c2cccs2)ccc1-c1nc2ccccc2s1

absorption maximum (in ClC(Cl)Cl): 400 nm
Structure (SMILES): F[B-]1(F)OC(c2ccccc2)=Cc2c3ccccc3cc[n+]21

absorption maximum (in CO): 514.14 nm
Structure (SMILES): Nc1ccc2c3c(cccc13)C(=O)c1ccccc1-2

absorption maximum (in ClCCl): 475 nm
Structure (SMILES): F[B-]1(F)OC(c2ccccc2)=Cc2cc3[n+](c[n+]21)[B-](F)(F)OC(c1ccccc1)=C3

absorption maximum (in ClCCl): 370 nm
Structure (SMILES): C(=C\c1ccc(-c2cccc3ccccc23)s1)/c1cccs1

absorption maximum (in C1CCCCC1): 350 nm
absorption maximum (in CO): 350 nm
Structure (SMILES): COc1ccc(/C=C/c2nc3ccccc3s2)cc1

absorption maximum (in ClC(Cl)Cl): 430 nm
Structure (SMILES): F[B-]1(F)OC(c2ccc(Br)cc2)=Cc2ccc3ccccc3[n+]21

absorption maximum (in ClCCl): 405 nm
Structure (SMILES): c1ccc2c(c1)OB1Oc3ccccc3-c3c1c-2c1c2c3-c3ccccc3OB2Oc2ccccc2-1

absorption maximum (in ClC(Cl)Cl): 418 nm
Structure (SMILES): C(#Cc1ccccc1)C(C#Cc1ccccc1)=Cc1ccc2cc(C=C(C#Cc3ccccc3)C#Cc3ccccc3)ccc2c1

absorption maximum (in C1CCOC1): 561 nm
Structure (SMILES): F[B-]1(F)n2c(-c3ccccc3)cc(-c3ccccc3)c2C(c2ccccc2)=C2C(c3ccccc3)=CC(c3ccccc3)=[N+]21

absorption maximum (in C1CCOC1): 386 nm
absorption maximum (in CC#N): 380 nm
absorption maximum (in CO): 375 nm
absorption maximum (in ClCCl): 384 nm
Structure (SMILES): C(=C\c1nc2ccccc2s1)/c1ccc(-c2nc3c4cccnc4c4ncccc4c3[nH]2)cc1

absorption maximum (in ClCCl): 444 nm
Structure (SMILES): COc1ccc(/C=C/C2=CC(c3ccccc3)=[O+][B-](F)(F)O2)cc1

absorption maximum (in ClCCl): 333 nm
Structure (SMILES): c1ccc(-c2nc(-c3ccc(N4c5ccccc5Oc5ccccc54)cc3)nn2-c2ccc(N3c4ccccc4Oc4ccccc43)cc2)nc1

absorption maximum (in CO): 489 nm
Structure (SMILES): C(=C\c1c[nH]c2ccccc12)/c1cc[n+]2ccc(/C=C/c3c[nH]c4ccccc34)cc2c1

absorption maximum (in ClCCl): 370 nm
Structure (SMILES): Cc1ccc(/C=C/c2nc(-c3cccc([N+](=O)[O-])c3)[nH]c2/C=C/c2ccc(C)cc2)cc1

absorption maximum (in CCO): 382 nm
Structure (SMILES): Cc1c(COC(=O)c2ccccc2Br)n2c(OCC(=O)c3ccccc3Br)c(C)c(=O)n2c1=O

absorption maximum (in ClC(Cl)Cl): 476 nm
Structure (SMILES): CN(c1ccccc1)c1ccc(-c2ccc(-c3ccc(N(C)c4ccccc4)cc3)c3nc(-c4ccccc4)c(-c4ccccc4)nc23)cc1

absorption maximum (in C1CCCCC1): 591 nm
Structure (SMILES): CCc1c(C)c2n(c1C)[B-](F)(F)[N+]1=C(C=C3C=Cc4ccccc43)C=CC1=C2C

absorption maximum (in C1CCOC1): 354 nm
Structure (SMILES): c1ccc2c(c1)Cc1c-2sc2c1Cc1ccccc1-2

absorption maximum (in ClCCl): 386 nm
Structure (SMILES): COc1ccc(/C=C/c2cc(/C=C/c3ccc(N(c4ccccc4)c4ccccc4)cc3)nc(/C=C/c3ccc(N(C)C)cc3)n2)cc1

absorption maximum (in CCO): 547 nm
absorption maximum (in O): 548 nm
Structure (SMILES): CN(C)c1ccc2cc3ccc(=[N+](C)C)cc-3oc2c1

absorption maximum (in C1CCCCC1): 546 nm
Structure (SMILES): C(#Cc1cccc2cc(-c3ccccc3)c3cc(-c4cc[b-]5c(c4)c(-c4ccccc4)cc4cccc(C#Cc6ccccc6)[n+]54)cc[b-]3[n+]12)c1ccccc1

absorption maximum (in ClCCl): 388.72 nm
Structure (SMILES): c1ccn(-c2ccc(-c3cc(-c4ccc(-n5cccc5)cc4)cc(-c4ccc(-n5cccc5)cc4)c3)cc2)c1

absorption maximum (in C1CCCCC1): 431.03 nm
absorption maximum (in C1COCCO1): 434.97 nm
absorption maximum (in CC#N): 434.97 nm
absorption maximum (in CC(C)O): 431.97 nm
absorption maximum (in CCCCCC): 429.92 nm
absorption maximum (in ClC(Cl)Cl): 437.06 nm
absorption maximum (in c1ccccc1): 434.97 nm
Structure (SMILES): CC1(C)CCc2c(c3ccccc3c3nc4c(nc23)c2c(c3ccccc34)OC(C)(C)CC2)O1

absorption maximum (in C1CCCCC1): 341 nm
absorption maximum (in C1COCCO1): 343 nm
absorption maximum (in CC#N): 341 nm
absorption maximum (in CC(C)(C)O): 347 nm
absorption maximum (in CC(C)O): 345 nm
absorption maximum (in CCCCCC): 340 nm
absorption maximum (in CCCCO): 346 nm
absorption maximum (in CCOC(C)=O): 342 nm
absorption maximum (in CN(C)C=O): 344 nm
absorption maximum (in CO): 346 nm
absorption maximum (in ClCCl): 344 nm
Structure (SMILES): O=C1Nc2ccccc2/C1=C/C(=O)c1ccc([N+](=O)[O-])cc1
